Test results published in patent publication US20220079924A1, “GLUCOCORTICOID RECEPTOR MODULATORS” (ORIC Pharmaceuticals, Inc., priority 2018, published 2022).

Target: T1, GR (Homo sapiens, UniProt P04150)
T1 construct: expressed in transfected cells; host or cells: CHO-K1 (CHO-K1-GR-MMTV-Luc reporter cells)
T1 sequence (P04150 1-777): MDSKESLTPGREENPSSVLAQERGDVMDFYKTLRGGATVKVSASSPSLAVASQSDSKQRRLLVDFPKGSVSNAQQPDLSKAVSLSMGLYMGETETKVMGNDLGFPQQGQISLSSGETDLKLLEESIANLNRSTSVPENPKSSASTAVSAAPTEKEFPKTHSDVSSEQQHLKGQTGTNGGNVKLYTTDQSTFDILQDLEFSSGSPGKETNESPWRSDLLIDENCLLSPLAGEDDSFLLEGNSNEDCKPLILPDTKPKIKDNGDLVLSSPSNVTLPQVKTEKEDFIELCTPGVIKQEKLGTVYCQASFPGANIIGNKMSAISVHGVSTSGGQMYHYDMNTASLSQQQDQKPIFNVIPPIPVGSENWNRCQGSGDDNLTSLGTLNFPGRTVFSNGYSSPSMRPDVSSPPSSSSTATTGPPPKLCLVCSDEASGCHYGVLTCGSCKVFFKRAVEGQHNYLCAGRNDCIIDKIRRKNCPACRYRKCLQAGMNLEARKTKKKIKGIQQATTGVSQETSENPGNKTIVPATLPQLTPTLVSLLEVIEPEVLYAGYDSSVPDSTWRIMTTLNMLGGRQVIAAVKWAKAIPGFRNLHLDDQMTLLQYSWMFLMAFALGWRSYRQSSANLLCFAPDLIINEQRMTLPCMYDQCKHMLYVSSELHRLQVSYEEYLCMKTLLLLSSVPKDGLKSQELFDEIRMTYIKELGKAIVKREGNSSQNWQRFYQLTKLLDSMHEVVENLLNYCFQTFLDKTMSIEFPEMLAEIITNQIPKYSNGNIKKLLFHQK
Assay: In Vitro GR Luciferase Reporter Assay (antagonist assay)
Format: cell-based
Details: CHO-K1-GR-MMTV-Luc reporter cells, 10 nM Dexamethasone, 18-24 hours
Procedure: Example A: In Vitro GR Luciferase Reporter Assay
Cell Line: CHO-K1-GR-MMTV-Luc reporter cells
Culture Media: DMEM (with phenol red)+10% FBS
Assay Media: DMEM (without phenol red)+10% CSS
Culture CHO-K1-GR-MMTV-Luc reporter cells in T175 flasks in Culture Media at conditions less than 90% confluence.
Using Bravo (Agilent) liquid handler:
200× DMSO 1:3 serial dilutions of control and test compounds in 96-well non-sterile V bottom plate in DMSO, 12 points for each compound were prepared.
Prepared 5× compound serial dilutions: Add 97.5 μL/well of Assay Media into 96-well non-sterile V bottom plate then added 2.5 ul of 200× concentration of compounds and mix well.
Seeded cells for Antagonist Assay: 5200 CHO-K1-GR-MMTV-Luc reporter cells were seeded in Greiner #781080 flat clear bottom 384-well white TC plate in 20 ul of Assay Media containing 12.5 nM Dexamethasone (final concentration=10 nM).
Added compounds: 5 μl of 5× compounds were added to appropriate wells and followed with a quick spin (1000 rpm, 10 sec) to bring media and cells to the bottom of plate. The plates were covered with SealMate film to avoid evaporation and placed in 37° C. incubator for approximately 18-24 hours.
Read plates: Equilibrate appropriate amount of Promega OneGlo luciferase reagent to room temperature. Remove the plates from incubator and add 25 uL of OneGlo reagent/well by Bravo and read the plates on Tecan Spark plate reader within 15 minutes.
The ability of the compounds disclosed herein to inhibit GR activity was quantified and the respective IC50 value was determined. Table 1 provides the cellular IC50 values of compounds disclosed herein.

Row | Compound | IC50 [nM]
1 | Cn1cnc(S(=O)(=O)[C@H]2CCC3=Cc4c(cnn4-c4ccc(F)cc4)C[C@]3(C(=O)c3cc4c(cn3)OCCO4)C2)n1 [Example 97] | ≤ 100
2 | Cn1cnc(S(=O)(=O)N(C2CC2)[C@H]2CCC3=Cc4c(cnn4-c4ccc(F)cc4)C[C@]3(C(=O)c3ncc(C(C)(C)C)s3)C2)c1 [Example 1, N-((4aS,6S)-4a-(5-(tert-Butyl)thiazole-2-carbonyl)-1-(4-fluorophenyl)-4,4a,5,6,7,8-hexahydro-1H-benzo[f]indazol-6-yl)-N-cyclopropyl-1-methyl-1H-imidazole-4-sulfonamide] | ≤ 100
3 | CC(C)N([C@H]1CCC2=Cc3c(cnn3-c3ccc(F)cc3)C[C@]2(C(=O)c2cc(F)ccn2)C1)S(=O)(=O)c1cn(C)cn1 [Example 87] | ≤ 100
4 | CC(C)N([C@H]1CCC2=Cc3c(cnn3-c3ccc(F)nc3)C[C@]2(C(=O)c2cc(F)ccn2)C1)S(=O)(=O)c1cnn(C)c1 [Example 68] | ≤ 100
5 | Cn1cc(S(=O)(=O)N(CCF)[C@H]2CCC3=Cc4c(cnn4-c4ccc(F)cc4)C[C@]3(C(=O)c3cc(F)ccn3)C2)cn1 [Example 5, N-(2-Fluoroethyl)-N-((4aS,6S)-1-(4-fluorophenyl)-4a-(4-fluoropicolinoyl)-4,4a,5,6,7,8-hexahydro-1H-benzo[f]indazol-6-yl)-1-methyl-1H-pyrazole-4-sulfonamide] | ≤ 100
6 | O=C(c1cc(F)ccn1)[C@]12Cc3cnn(-c4ccc(F)cc4)c3C=C1CC[C@H](N(CC(F)F)S(=O)(=O)c1ccc(F)cc1)C2 [Example 25] | ≤ 100
7 | O=C(c1cc(F)ccn1)[C@]12Cc3cnn(-c4ccc(F)cc4)c3C=C1CC[C@H](N(C1CC(F)(F)C1)S(=O)(=O)c1ccc(F)cc1)C2 [Example 23] | ≤ 100
8 | O=C(c1ccc(C2CC2)cn1)[C@]12Cc3cnn(-c4ccc(F)cc4)c3C=C1CC[C@H](S(=O)(=O)c1ncn(CC(F)(F)F)n1)C2 [Example 95] | ≤ 100
9 | CCn1cnc(S(=O)(=O)[C@H]2CCC3=Cc4c(cnn4-c4ccc(F)cc4)C[C@]3(C(=O)c3ccc(C(F)(F)F)cn3)C2)n1 [Example 93] | ≤ 100
10 | Cn1cnc(S(=O)(=O)N(CC(F)(F)F)[C@H]2CCC3=Cc4c(cnn4-c4ccc(F)cc4)C[C@]3(C(=O)c3cc(F)ccn3)C2)c1 [Example 82] | ≤ 100
11 | C[C@H]([C@H]1CCC2=Cc3c(cnn3-c3ccc(F)cc3)C[C@]2(C(=O)c2ncc(C(F)(F)F)s2)C1)S(=O)(=O)c1ncn(C)n1 [Example 56] | ≤ 100
12 | CC(C)N([C@H]1CCC2=Cc3c(cnn3-c3ccc(F)nc3)C[C@]2(C(=O)c2cc(F)ccn2)C1)S(=O)(=O)c1ccn(C)n1 [Example 84] | ≤ 100
13 | CC(C)N([C@H]1CCC2=Cc3c(cnn3-c3ccc(F)cc3)C[C@]2(C(=O)c2cc(F)ccn2)C1)S(=O)(=O)c1cnn(C)c1 [Example 79] | ≤ 100
14 | CC(C)N([C@H]1CCC2=Cc3c(cnn3-c3ccc(F)nc3)C[C@]2(C(=O)c2cc(Cl)ccn2)C1)S(=O)(=O)c1ccn(C)n1 [Example 85] | ≤ 100
15 | Cn1cc(S(=O)(=O)N[C@H]2CCC3=Cc4c(cnn4-c4ccc(F)cc4)C[C@]3(C(=O)c3cc(F)ccn3)C2)cn1 [Example 98] | 100 to 1000
16 | Cn1cc(S(=O)(=O)N(C2CC(F)(F)C2)[C@H]2CCC3=Cc4c(cnn4-c4ccc(F)nc4)C[C@]3(C(=O)c3cc(C(C)(C)C)ccn3)C2)cn1 [Example 76] | ≤ 100

Next, values leading:

Row | IC50 [nM] | Compound
17 | ≤ 100 | Cn1cc(S(=O)(=O)N(C2CC(F)(F)C2)[C@H]2CCC3=Cc4c(cnn4-c4ccc(F)nc4)C[C@]3(C(=O)c3cc(F)ccn3)C2)cn1 [Example 71]
18 | 100 to 1000 | Cn1cnc(S(=O)(=O)N([C@H]2CCC3=Cc4c(cnn4-c4ccc(F)cc4)C[C@]3(C(=O)c3cc(F)ccn3)C2)[C@H]2C[C@](O)(C(F)(F)F)C2)n1 [Example 43]
19 | ≤ 100 | Cn1cnc(S(=O)(=O)N(C2CC2)[C@H]2CCC3=Cc4c(cnn4-c4ccc(F)cn4)C[C@]3(C(=O)c3ncc(C(C)(C)C)s3)C2)n1 [Example 65]
20 | ≤ 100 | Cn1cc(S(=O)(=O)N(Cc2ncco2)[C@H]2CCC3=Cc4c(cnn4-c4ccc(F)cc4)C[C@]3(C(=O)c3cc(C(F)(F)F)ccn3)C2)cn1 [Example 54]
21 | ≤ 100 | Cn1cnc(S(=O)(=O)N(C2CC(F)(F)C2)[C@H]2CCC3=Cc4c(cnn4-c4ccc(F)nc4)C[C@]3(C(=O)c3cc(C(C)(C)C)ccn3)C2)n1 [Example 75]
22 | ≤ 100 | CC(C)N([C@H]1CCC2=Cc3c(cnn3-c3ccc(F)nc3)C[C@]2(C(=O)c2cc(Cl)ccn2)C1)S(=O)(=O)c1ncn(C)n1 [Example 52]
23 | ≤ 100 | CC(C)N([C@H]1CCC2=Cc3c(cnn3-c3ccc(F)nc3)C[C@]2(C(=O)c2ncc(C(F)(F)F)s2)C1)S(=O)(=O)c1ncn(C)n1 [Example 38]
24 | ≤ 100 | Cn1cnc(S(=O)(=O)N(C2CC2)[C@H]2CCC3=Cc4c(cnn4-c4ccc(F)cc4)C[C@]3(C(=O)c3cc4c(cn3)OCCO4)C2)n1 [Example 96]
25 | ≤ 100 | Cn1cnc(S(=O)(=O)N(CC(F)(F)F)[C@H]2CCC3=Cc4c(cnn4-c4ccc(F)cc4)C[C@]3(C(=O)c3cc(Cl)ccn3)C2)n1 [Example 41]
26 | ≤ 100 | Cn1cnc(S(=O)(=O)N(C2CC(F)(F)C2)[C@H]2CCC3=Cc4c(cnn4-c4ccc(F)nc4)C[C@]3(C(=O)c3cc(F)ccn3)C2)n1 [Example 70]
27 | ≤ 100 | Cn1cnc(S(=O)(=O)N([C@H]2CCOC2)[C@H]2CCC3=Cc4c(cnn4-c4ccc(F)cc4)C[C@]3(C(=O)c3cc(C(F)(F)F)ccn3)C2)n1 [Example 33]
28 | ≤ 100 | Cn1cnc(S(=O)(=O)[C@H]2CCC3=Cc4c(cnn4-c4ccc(F)cc4)C[C@]3(C(=O)c3cc(C(F)F)ccn3)C2)n1 [Example 90]
29 | ≤ 100 | Cn1cc(S(=O)(=O)N(C2CC2)[C@H]2CCC3=Cc4c(cnn4-c4ccc(F)nc4)C[C@]3(C(=O)c3ncc(C(F)(F)F)s3)C2)cn1 [Example 16]
30 | ≤ 100 | Cn1cnc(S(=O)(=O)N(C2CC2)[C@H]2CCC3=Cc4c(cnn4-c4ccc(F)cn4)C[C@]3(C(=O)c3cc(C(F)(F)F)ccn3)C2)n1 [Example 55]
31 | ≤ 100 | CC(C)N([C@H]1CCC2=Cc3c(cnn3-c3ccc(F)nc3)C[C@]2(C(=O)c2cc(F)ccn2)C1)S(=O)(=O)c1ncn(C)n1 [Example 66]
32 | ≤ 100 | Cn1cc(S(=O)(=O)N(C2CC2)[C@H]2CCC3=Cc4c(cnn4-c4ccc(F)nc4)C[C@]3(C(=O)c3cc(C(F)(F)F)ccn3)C2)cn1 [Example 18]
33 | ≤ 100 | O=C(c1cc(F)ccn1)[C@]12Cc3cnn(-c4ccc(F)nc4)c3C=C1CC[C@H](N(C1CC1)S(=O)(=O)c1ccc(F)cc1)C2 [Example 27]
34 | ≤ 100 | Cn1cc(S(=O)(=O)N(CCF)[C@H]2CCC3=Cc4c(cnn4-c4ccc(F)cc4)C[C@]3(C(=O)c3cc(C(F)(F)F)ccn3)C2)cn1 [Example 32]
35 | ≤ 100 | Cn1cnc(S(=O)(=O)N([C@H]2CCC3=Cc4c(cnn4-c4ccc(F)cc4)C[C@]3(C(=O)c3cc(Cl)ccn3)C2)[C@H]2C[C@@](O)(C(F)(F)F)C2)n1 [Example 45]
36 | ≤ 100 | Cn1ccc(S(=O)(=O)C(C)(C)[C@H]2CCC3=Cc4c(cnn4-c4ccc(F)cc4)C[C@]3(C(=O)c3cc(C(F)(F)F)ccn3)C2)n1 [Example 88]
37 | ≤ 100 | CCN([C@H]1CCC2=Cc3c(cnn3-c3ccc(F)nc3)C[C@]2(C(=O)c2cc(C(F)(F)F)ccn2)C1)S(=O)(=O)c1ncn(C)n1 [Example 49]
